# Experimental data reported in patent US20100317647A1 (priority 2009, published 2010).
# pIC50: −log10 of the molar value.
# Target: human Cat S (Homo sapiens, UniProt P25774)
# Assay: Cathepsin enzyme inhibition assay (fluorogenic peptide substrate cleavage)
# Type: biochemical
# Conditions: human Cat S 1 nM; substrate Z-Val-Val-Arg-AMC 20 μM; pH 6.5; fluorescence over 20 minutes
# Method: Cathepsin Enzyme Inhibition Assay
# Enzyme activity is measured by observing the increase in fluorescence intensity caused by cleavage of a peptide substrate containing a fluorophore whose emission is quenched in the intact peptide.
# Assay buffer: 100 mM potassium phosphate pH 6.5, EDTA-Na 5 mM, Triton X-100 0.001%, DTT 5 mM. Enzymes (all at 1 nM): human and mouse Cathepsin S, Cat K, Cat B, Cat L. Substrate (20 μM): Z-Val-Val-Arg-AMC, except for Cat K which uses Z-Leu-Arg-AMC (both from Bachem).
# AMC=7-Amino-4-Methyl-Coumarin.
# DTT=dithiothreitol. Final volume: 100 μL.
# Excitation 360 nm, Emission 465 nm.
# Enzyme is added to the substance dilutions in 96-well microtitre plates and the reaction is started with substrate. Fluorescence emission is measured over 20 minutes, during which time a linear increase is observed in the absence of inhibitor. IC50 are calculated by standard methods. Inhibition of human Cat S, mouse Cat S, human Cat K, mouse Cat K, human Cat B, mouse Cat B, human Cat L and mouse Cat L have been measured separately. The results obtained for human Cat S are expressed in the following table.
# Sequence of human Cat S (P25774 115-331): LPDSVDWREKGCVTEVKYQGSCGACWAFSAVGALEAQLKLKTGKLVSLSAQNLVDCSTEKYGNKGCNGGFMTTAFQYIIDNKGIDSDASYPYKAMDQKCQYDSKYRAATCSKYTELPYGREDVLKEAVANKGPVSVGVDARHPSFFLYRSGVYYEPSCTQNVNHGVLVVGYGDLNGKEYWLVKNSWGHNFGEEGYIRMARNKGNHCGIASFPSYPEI
row,SMILES,pIC50
1,"CO[C@@H]1C[C@H](S(=O)(=O)c2ccc(N3CCC(O)CC3)cc2C(F)(F)F)C[C@H]1C(=O)NC1(C#N)CC1 (racemic) [Example 207, (1R,2R,4R) and (1S,2S,4S)-4-[4-(4-Hydroxy-piperidin-1-yl)-2-trifluoromethyl-benzenesulfonyl]-2-methoxy-cyclopentanecarboxylic acid (1-cyano-cyclopropyl)-amide]",9.05
2,"CNC(=O)[C@@H]1C[C@H](S(=O)(=O)c2ccccc2)C[C@H]1C(=O)NC1(C#N)CC1 [Example 29, (1R,2R,4S)-4-Benzenesulfonyl-cyclopentane-1,2-dicarboxylic acid 1-[(1-cyano-cyclopropyl)-amide]2-methylamide]",7.14
3,"Cc1cc(-c2ccc(S(=O)(=O)[C@H]3C[C@@H](OC4CCS(=O)(=O)CC4)[C@H](C(=O)NC4(C#N)CC4)C3)c(C(F)(F)F)c2)ccn1 (racemic) [Example 183, (1R,2R,4R) and (1S,2S,4S)-2-[(tetrahydro-1,1-dioxo-2H-thiopyran-4-yl)oxy]-4-[4-(2-methyl-pyridin-4-yl)-2-trifluoromethyl-benzenesulfonyl]-cyclopentanecarboxylic acid (1-cyano-cyclopropyl)-amide]",9.70
4,"N#CC1(NC(=O)[C@@H]2C[C@@H](S(=O)(=O)c3ccccc3Cl)C[C@H]2OCc2ccc(Cl)c(Cl)c2)CC1 (racemic) [Example 250, (1R,2R,4R) and (1S,2S,4S)-4-(2-Chloro-benzenesulfonyl)-2-(3,4-dichloro-benzyloxy)-cyclopentanecarboxylic acid (1-cyano-cyclopropyl)-amide]",7.20
5,"Cc1cc(-c2ccc(S(=O)(=O)[C@H]3C[C@@H](OC4CCCC4)[C@H](C(=O)NC4(C#N)CC4)C3)c(C(F)(F)F)c2)ccn1 (racemic) [Example 212, (1R,2R,4R) and (1S,2S,4S)-2-Cyclopentyloxy-4-[4-(2-methyl-pyridin-4-yl)-2-trifluoromethyl-benzenesulfonyl]-cyclopentanecarboxylic acid (1-cyano-cyclopropyl)-amide]",9.67
6,"N#CC1(NC(=O)[C@@H]2C[C@@H](S(=O)(=O)c3ccccc3C(F)(F)F)C[C@H]2OC2CCOCC2)CC1 (racemic) [Example 175, (1R,2R,4R) and (1S,2S,4S)-2-(Tetrahydro-pyran-4-yloxy)-4-(2-trifluoromethyl-benzenesulfonyl)-cyclopentanecarboxylic acid (1-cyano-cyclopropyl)-amide]",9.32
7,"N#CC1(NC(=O)[C@@H]2C[C@@H](S(=O)(=O)c3ccc(N4CCN(C5CC5)CC4)cc3Cl)C[C@H]2C(=O)N2CCC(F)(F)C2)CC1 [Example 191, (1R,2R,4R)-4-[2-Chloro-4-(4-cyclopropyl-piperazin-1-yl)-benzenesulfonyl]-2-(3,3-difluoro-pyrrolidine-1-carbonyl)-cyclopentanecarboxylic acid (1-cyano-cyclopropyl)-amide]",9.24
8,"Cc1cc(-c2ccc(S(=O)(=O)[C@H]3C[C@@H](OC4CCC4)[C@H](C(=O)NC4(C#N)CC4)C3)c(C(F)(F)F)c2)ccn1 (racemic) [Example 210, (1R,2R,4R) and (1S,2S,4S)-2-Cyclobutoxy-4-[4-(2-methyl-pyridin-4-yl)-2-trifluoromethyl-benzenesulfonyl]-cyclopentanecarboxylic acid (1-cyano-cyclopropyl)-amide]",9.68
9,"CO[C@@H]1C[C@H](S(=O)(=O)c2ccc(-c3cc(C)sc3C)cc2C(F)(F)F)C[C@H]1C(=O)NC1(C#N)CC1 (racemic) [Example 87, (1R,2R,4R) and (1S,2S,4S)-4-[4-(2,5-Dimethyl-thiophen-3-yl)-2-trifluoromethyl-benzenesulfonyl]-2-methoxy-cyclopentanecarboxylic acid (1-cyano-cyclopropyl)-amide]",9.70
10,"N#CC1(NC(=O)[C@@H]2C[C@H](S(=O)(=O)c3ccc(Cl)cn3)C[C@H]2C(=O)N2CCC(F)(F)C2)CC1 [Example 226, (1R,2R,4S)-4-(5-Chloro-pyridine-2-sulfonyl)-2-(3,3-difluoro-pyrrolidine-1-carbonyl)-cyclopentanecarboxylic acid (1-cyano-cyclopropyl)-amide]",7.30
11,"N#CC1(NC(=O)[C@@H]2C[C@@H](S(=O)(=O)c3ccccc3)C[C@H]2C(=O)N2CCS(=O)(=O)CC2)CC1 [Example 20, (1R,2R,4R)-4-Benzenesulfonyl-2-(1,1-dioxo-1-thiomorpholine-4-carbonyl)-cyclopentanecarboxylic acid (1-cyano-cyclopropyl)-amide]",8.37
12,"N#CC1(NC(=O)[C@@H]2C[C@@H](S(=O)(=O)c3ccc(Br)cc3C(F)(F)F)C[C@H]2COC=O)CC1 [Example 152, Formic acid (1R,2R,4S)-4-(4-bromo-2-trifluoromethyl-benzenesulfonyl)-2-(1-cyano-cyclopropylcarbamoyl)-cyclopentylmethyl ester]",8.38
13,"N#CCNC(=O)[C@H]1CC[C@H](S(=O)(=O)c2ccc(F)cc2Cl)C1 (racemic) [Example 79, (1S,3S) and (1R,3R)-3-(2-Chloro-4-fluoro-benzenesulfonyl)-cyclopentanecarboxylic acid cyanomethyl-amide]",6.17
14,"COC[C@@H]1C[C@H](S(=O)(=O)c2ccccc2Cl)C[C@H]1C(=O)NC1(C#N)CC1 (single isomer, unassigned) [Example 105]",7.65
15,"Cc1cc(-c2ccc(S(=O)(=O)[C@@H]3C[C@@H](C(=O)NC4(C#N)CC4)[C@H](C(=O)N4CC(F)(F)C4)C3)c(C(F)(F)F)c2)ccn1 [Example 121, (1R,2R,4R)-2-(3,3-Difluoro-azetidine-1-carbonyl)-4-[4-(2-methyl-pyridin-4-yl)-2-trifluoromethyl-benzenesulfonyl]-cyclopentanecarboxylic acid (1-cyano-cyclopropyl)-amide]",9.70
16,"N#CC1(NC(=O)[C@@H]2C[C@@H](S(=O)(=O)c3ccccc3Cl)C[C@H]2C(=O)N2CCOCC2)CC1 [Example 9, (1R,2R,4R)-4-(2-Chloro-benzenesulfonyl)-2-(morpholine-4-carbonyl)-cyclopentanecarboxylic acid (1-cyano-cyclopropyl)-amide]",9.05
17,"CO[C@@H]1C[C@H](S(=O)(=O)c2ccc(N3CCC(F)(F)CC3)cc2C(F)(F)F)C[C@H]1C(=O)NC1(C#N)CC1 (racemic) [Example 178, (1R,2R,4R) and (1S,2S,4S)-4-[4-(4,4-Difluoro-piperidin-1-yl)-2-trifluoromethyl-benzenesulfonyl]-2-methoxy-cyclopentanecarboxylic acid (1-cyano-cyclopropyl)-amide]",9.05
18,"COc1ccc(S(=O)(=O)[C@H]2C[C@@H](OC)[C@H](C(=O)NC3(C#N)CC3)C2)c(Cl)c1 (racemic) [Example 89, (1R,2R,4R) and (1S,2S,4S)-4-(2-Chloro-4-methoxy-benzenesulfonyl)-2-methoxy-cyclopentanecarboxylic acid (1-cyano-cyclopropyl)-amide]",8.13
19,"CO[C@@H]1C[C@H](S(=O)(=O)c2ccc(-c3nc(C)cs3)cc2C(F)(F)F)C[C@H]1C(=O)NC1(C#N)CC1 (racemic) [Example 61, (1R,2R,4R) and (1S,2S,4S)-2-Methoxy-4-[4-(4-methyl-thiazol-2-yl)-2-trifluoromethyl-benzenesulfonyl]-cyclopentanecarboxylic acid (1-cyano-cyclopropyl)-amide]",9.52
